Test results as given in paper PMC4894652 (Neuron, 2016).

molecular target: T1, DmSLC22A (CG7442) (Drosophila melanogaster, UniProt Q7JRD5); assay type: cell-based; details: labelled compound; doxycycline-induced vs un-induced cells
T1 sequence (Q7JRD5 1-568): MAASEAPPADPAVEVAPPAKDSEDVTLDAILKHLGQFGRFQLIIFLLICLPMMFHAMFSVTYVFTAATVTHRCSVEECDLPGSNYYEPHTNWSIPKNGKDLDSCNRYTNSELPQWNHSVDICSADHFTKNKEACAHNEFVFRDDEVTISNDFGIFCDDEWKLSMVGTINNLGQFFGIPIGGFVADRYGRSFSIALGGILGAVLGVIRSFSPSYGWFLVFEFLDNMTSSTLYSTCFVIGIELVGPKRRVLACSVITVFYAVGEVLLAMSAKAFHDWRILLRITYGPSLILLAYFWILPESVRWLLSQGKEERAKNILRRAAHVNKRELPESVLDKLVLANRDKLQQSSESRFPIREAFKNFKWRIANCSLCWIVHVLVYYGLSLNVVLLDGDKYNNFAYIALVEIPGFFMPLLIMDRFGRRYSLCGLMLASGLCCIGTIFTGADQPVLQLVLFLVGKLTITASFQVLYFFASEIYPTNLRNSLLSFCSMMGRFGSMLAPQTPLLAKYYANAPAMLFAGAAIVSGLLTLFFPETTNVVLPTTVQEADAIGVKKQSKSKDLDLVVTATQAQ

SMILES | apparent Km
C[n+]1ccc(-c2ccccc2)cc1 [MPP] | Table S2 lists the apparent Km and Vmax values for each substrate
CC[N+](CC)(CC)CC [TEA] | Table S2 lists the apparent Km and Vmax values for each substrate
CC(=O)OCC[N+](C)(C)C [acetylcholine] | choline and acetylcholine are transported with low μM Km values
C[N+](C)(C)CC(=O)[O-] [betaine] | Table S2 lists the apparent Km and Vmax values for each substrate
C[N+](C)(C)CCO [choline] | choline and acetylcholine are transported with low μM Km values
NCCc1c[nH]cn1 [histamine] | Table S2 lists the apparent Km and Vmax values for each substrate
NCCc1c[nH]c2ccc(O)cc12 [serotonin] | Table S2 lists the apparent Km and Vmax values for each substrate
